Source: US20260258025A1, “INHIBITORS OF TDP-43 AND TAU AGGREGATION” (Aquinnah Pharmaceuticals, inc., priority 2023, published 2026)
pIC50: −log10 of the molar value. Blank lines part the entries; values can stand above or below the molecule they belong to. Where a SMILES comes first, the peptide text is derived from it. The star is where a group is joined. Cbz = O=C(OCc1ccccc1)*

Assays:
Format in all cases: cell-based
[1] = system: tau stress granules; assay: SY5Y-tT1 tau arsenite assay (tau stress granules per cell); settings: SY5Y-tT1 cells, 2 hours compound, 90 minutes arsenite, 50% reduction of granules per cell, read-out: IC50, Inhibitor Activity of Tau Stress Granules
Procedure: Example 91: In Vitro Efficacy Assay of Exemplary Compounds—SY5Y-tT1 Tau Arsenite/Thapsigargin Assay
• Before harvesting cells—checked to see if cells are ~80% confluency in their flask • 1. Aspirated growth media from flask. • 2. Added 4 mL of (0.25%) trypsin-EDTA (REF: 25200-056) • 3. Placed in 37° C. incubator for 5 minutes. • 4. Removed from incubator and added 11 mL growth media, washing any remaining cells adhered to the bottom of the flask. • 5. Transferred cell containing media to a 50 mL conical tube and spun for 5 minutes at 800 rpm. • 6. Aspirated supernatant and added 5 mL of growth media to cell pellet, triturating to make a homogenous cell solution. • 7. After counting cells, followed one of these plating paradigms: • (A) If treating with arsenite, plated cells at […] with tetracycline solution (5 mg/mL) added to cell solution at 1:5000 • (B) If treating with thapsigargin, plated cells at 4,000 cells/well with tetracycline solution (5 mg/mL) added to cell solution at 1:5000 • 8. Incubated at 37° C. for 48 hours.
• Solubilized all compounds to 10 mM prior to making dilution plates • 1. To a 96-well U-bottom plate (Falcon Non-Tissue Culture Treated Plates REF: 351177) added 120 μL growth media to all 96 wells, with an additional 58.2 μL to row A. • 2. Added 1.8 μL of 10 mM compound stock to wells A1-11, adding 1.8 μL of 10 mM PERKi stock (Selleck Chemistry GSK2606414 Cat No. S7307) as the control. • 3. Serially diluted 60 μL from row A down through each row, finishing with 180 μL total volume in row H. • 4. Transferred 12.5 μL of each dilution plate well to the correlating wells in cell plate, being careful not to touch cells adhered to bottom of the plate. • 5. Incubated for 2 hours.
• 1. Added 720 μL of 0.05 M sodium arsenite solution (CAS #: 7784-46-5) to 10 mL of growth media for a final concentration of […] arsenite solution, mix well. • 2. Added 12.5 μL of arsenite solution to all wells of compounds treated plate intended for arsenite treatment. • 3. Incubated at 37° C. for 90 minutes.
• Before beginning this part of the protocol: • Made 1×PBS by diluting 10× stock (10×, Phosphate buffered saline, Fisher #BP399— • 4) in sterile deionized water. • Diluted paraformaldehyde (16% Paraformaldehyde solution, Electron Microscopy Sciences #15710-S) to 4% in 1×PBS. • Diluted Hoechst stain (Life Technologies #H3570) 1:10,000 in 1×PBS (1 μL Hoechst per 10 mL 1×PBS). • Both solutions were protected from light. • 1) After compound treatment, aspirated media from cell plates and gently added in 50 μL of 4% paraformaldehyde for 10 min protected from light at room temperature. • 2) Aspirated paraformaldehyde solution and gently added 50 μL of 1:10,000 Hoechst solution to each well and incubated for 10 min protected from light at room temperature. • 3) Aspirated Hoechst solution and gently added 100 μL 1×PBS. Cover the plate with aluminum film (VWR #60941-126). • 4) Stored at 4° C. or used immediately for imaging on ThermoFisher CX7 imager.
Exemplary compounds of the disclosed herein were evaluated for efficacy for inhibitor activity of tau stress granules in the arsenite assay and quantified as drug concentration providing a 50% reduction (IC50) of granules per cell is shown in Table 4.
In Table 4 below, A indicates an IC50 (μM)<0.5 μM, B indicates an IC50 (μM) 0.5 μM to <1 μM, C indicates an IC50 (μM) 1 μM to <2 μM, and D indicates an IC50 (μM) 2 μM to <6 μM.

[2] = system: TDP-43 aggregation; assay: TDP-43 aggregation assay in SY5Y TDP-43WT cells (high content imaging); settings: Homo sapiens, tetracycline induction 24 hrs, 1 hour compound pre-treatment, sodium arsenite 23 hrs, 8-point dose curve, percentage of cells with TDP-43 aggregates, read-out: IC50, Inhibition of TDP-43 Aggregation
Procedure, shortened: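 Tetracycline-inducible eGFP-tagged wild-type human TDP-43 in SH-SY5Y cells, induced 24 h ([…]), compound pre-treated 1 h, then sodium arsenite […] for 23 h. Fixed cells imaged; percentage of DAPI-counted cells with aggregates gives IC50 from 8-point curves.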

[3] = system: insoluble TDP-43; assay: Cell fractionation and immunoblot of TDP-43 in MG-132 challenged human motor neurons; settings: MG-132 1 μM, vs unstressed
Procedure: Cell culture and differentiation of iPS Cells into motor neurons. Pluripotent stem cells were grown with mTeSR Plus medium on tissue culture dishes coated with Matrigel, and maintained in 5% CO2 incubators at 37° C. Stem cells were passaged as small aggregates of cells after 1 mM EDTA treatment. […] was added to the cultures for 16-24 h after dissociation to prevent cell death. The iP11NA iPS cell line was acquired from ALSTEM. This cell line was generated from pre-made footprint-free human iPS cells with DOX inducible Ngn2 that has been stably integrated into the human AAVS1 “Safe Harbor” site, and provides a convenient means to differentiate human iPS cells into neurons rapidly and efficiently. Motor neuron differentiation was achieved using a modified 5-day strategy. […]
For analysis of TDP-43 cellular distribution, d14 motor neurons were lysed with Thermo Subcellular Protein Fractionation Kit for cultured cells and processed according to the manufacturer's instructions. […] Fluorescent secondary antibodies were used for band detection and the Kaleidoscope precision plus protein ladder for size estimation. iBright FL1500 imaging system and software were used to quantitate protein band signal. […]

[4] = system: TDP-43 splicing function; assay: qRT-PCR of TDP-43 sentinel transcripts (STMN2, ELAVL3, PFKP) in MG-132 challenged human motor neurons; set-up: effect of stressor on splicing changes associated with TDP-43 loss of function (qPCR): dose or concentration left out as unconfirmed; settings: human motor neurons, relative to unstressed
Procedure: (§1) Cell culture and differentiation of iPS Cells into motor neurons. Pluripotent stem cells were grown with mTeSR Plus medium on tissue culture dishes coated with Matrigel, and maintained in 5% CO2 incubators at 37° C. Stem cells were passaged as small aggregates of cells after 1 mM EDTA treatment. […] was added to the cultures for 16-24 h after dissociation to prevent cell death. The iP11NA iPS cell line was acquired from ALSTEM. This cell line was generated from pre-made footprint-free human iPS cells with DOX inducible Ngn2 that has been stably integrated into the human AAVS1 “Safe Harbor” site, and provides a convenient means to differentiate human iPS cells into neurons rapidly and efficiently. Motor neuron differentiation was achieved using a modified 5-day strategy.
(§2) This approach relies on neural induction through small molecule inhibition of SMAD signaling, accelerated neural differentiation through forced Ngn2 expression, and motor neuron patterning through the activation of retinoic acid and Sonic Hedgehog signaling pathways. In brief, pluripotent stem cells were dissociated to single cells using accutase and plated at a density of 80,000 cells per cm^2 on Matrigel-coated culture plates with mTeSR Plus medium supplemented with ROCK inhibitor (10 μM Y-27632, ATCC). When cells reached 50% confluency, medium was changed to differentiation medium BrainPhys medium supplemented with N2-A, SM1, […]. This time point was defined as day 0 (d0) of motor neuron differentiation. Treatment with small molecules was carried out as follows: 2 μg/mL Doxycyline, 10 μM SB431542, 100 nM LDN-193189, […] and 1 μM Smoothend agonist and 10 uM Edu. The full list of materials and their descriptions is included below in Table 5.
Total RNA was isolated from d14 motor neurons for qRT-PCR assays using TaqMan™ Fast Advanced Cells-to-CT™ Kit according to manufacturer's instructions. 7500 neurons per well of 96-well culture were routinely used for processing. qRT-PCR was then performed using multiplex assays from IDT using PrimeTime™ Gene Expression Master Mix (IDT) on a QuantStudio6Pro system. Quantitative levels for all genes assayed were normalized using GAPDH expression. […] Primers and probes used in this study are in Table 5.
To this end, we first examined whether proteasome inhibition, which triggers TDP-43 nuclear depletion, also leads to splicing defects associated with TDP-43 loss-of function. For comparison, we also treated human motor neurons with puromycin, which recruits TDP-43 to stress granules in the cytoplasm. We chose to analyze several transcripts that have relevant connections to ALS biology including STMN26,12, PFKP19, and ELAVL320,21. We used quantitative reverse transcription-polymerase chain reaction (qRT-PCR) to validate that in MG-132-treated motor neurons these transcripts were altered like in ALS patients.
Using this method, we next obtained RNA from independent motor neuron biological replicates after proteasome inhibition and Compound 183 treatment to determined by qRT-PCR the relative abundance of these transcripts. […] A dose-responsive effect was further tested for Compound 183 using qRT-PCR in this model. […] Collectively, the data support the notion that Compound 183 promotes TDP-43 nuclear function under proteotoxic stress.

[5] = system: TDP-43 nuclear localization; assay: TDP-43 localization analysis by immunofluorescence in MG-132 challenged iP11NA human motor neurons; settings: 1 μM MG-132 for 20 hours, human motor neurons, vs unstressed
Procedure: as §1
as §2, with “The full list of materials and their descriptions is included below in Table 5.” left out
A dose-responsive effect was further tested for Compound 183 using quantitative imaging analysis on the CellInsight™ CX7 High Content Analysis Platform. By comparing the intensity of TDP-43 staining in the nucleus and cytoplasm of human motor neurons, we determined Compound 183 could maintain nuclear TDP-43 from 370 nM-10 μM in the proteasome challenged motor neurons (see FIG. 2).

pIC50 [1]: 5.22 to 5.70
pIC50 [2]: > 6.30
SMILES: Cc1cc(-c2ccc(C(C)N(C)C)cc2)sc1C(=O)N1CC[C@H](N)C1 (stereo partly drawn) [Compound 200, ((S)-3-aminopyrrolidin-1-yl)(5-(4-(1-(dimethylamino)ethyl)phenyl)-3-methylthiophen-2-yl)methanone]

pIC50 [1]: > 6.30
pIC50 [2]: > 6.30
SMILES: Cc1cc(-c2ccc(C3CCN(C)CC3)cc2)sc1C(=O)N1CC[C@H](N)C1 [Compound 201, (S)-(3-aminopyrrolidin-1-yl)(3-methyl-5-(4-(1-methylpiperidin-4-yl)phenyl)thiophen-2-yl)methanone]

SMILES: CC(C)C[C@@H](C=O)NC(=O)[C@H](CC(C)C)NC(=O)[C@H](CC(C)C)NC(=O)OCc1ccccc1 [MG-132, reference compound] (Cbz-Leu-Leu-Leu-aldehyde)
effect of stressor on TDP-43 distribution between fractions (immunoblot) [3]: significant change in TDP-43 distribution from the soluble, nuclear compartment to the insoluble fraction
effect of stressor on cryptic splicing of STMN2, ELAVL3, PFKP (qPCR) ([4]; MG-132 1 μM): strong induction of cryptic splicing
effect of stressor on normal transcript levels (qPCR) ([4]; MG-132 1 μM): decreased levels for normal STMN2 as well as the cryptic exon-disrupted splice junctions in PFKP and ELAVL3
effect of stressor on nuclear TDP-43 staining (immunofluorescence) [5]: induced a loss of nuclear TDP-43 staining

SMILES: COc1ccc(C[C@H](N)C(=O)N[C@H]2[C@@H](O)[C@H](n3cnc4c(N(C)C)ncnc43)O[C@@H]2CO)cc1 [puromycin, reference compound]
effect of stressor on splicing changes associated with TDP-43 loss of function (qPCR) [4]: failed to induce transcription changes consistent with TDP-43 loss of function
